In paper PMC11786723, “Endoplasmic reticulum membrane remodeling by targeting reticulon-4 induces pyroptosis to facilitate antitumor immune” (Protein & Cell, 2024) one finds Kd data, which are given here for 2 compounds.

Test [1] addresses T1, reticulon-4 (RTN4/Nogo) (Homo sapiens, UniProt Q9NQC3).
T1 sequence (Q9NQC3 1-373 isoform Q9NQC3-2): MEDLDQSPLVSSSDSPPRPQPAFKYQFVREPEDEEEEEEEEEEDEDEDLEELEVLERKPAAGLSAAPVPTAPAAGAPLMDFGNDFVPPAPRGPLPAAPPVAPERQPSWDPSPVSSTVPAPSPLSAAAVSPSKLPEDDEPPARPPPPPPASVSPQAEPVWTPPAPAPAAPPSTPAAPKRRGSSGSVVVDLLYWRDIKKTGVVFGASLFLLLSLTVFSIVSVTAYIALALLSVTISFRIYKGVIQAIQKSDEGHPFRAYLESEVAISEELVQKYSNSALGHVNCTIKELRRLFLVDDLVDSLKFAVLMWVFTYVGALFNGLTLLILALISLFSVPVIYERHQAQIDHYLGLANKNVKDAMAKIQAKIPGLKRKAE
The experiment in a line: microscale thermophoresis (MST); supported by competitive pull-down. Format: binding. Details: RTN4B isoform focused on; MST construct printed only as RTN4.

The target of test [2] is T1, reticulon-4 (RTN4/Nogo). The experiment in a line: microscale thermophoresis (MST); HuProt human proteome microarray and competitive pull-down. Format: binding. Also noted: RTN4B isoform predominantly captured in pull-down; MST construct printed only as RTN4.

On to `COc1c(O)cc2oc3cc(O)c(CC=C(C)C)c(O)c3c(=O)c2c1CC=C(C)C` [α-MG, α-mangostin], for which binding at reticulon-4 (RTN4/Nogo) [1] was characterised by a dissociation constant (Kd) of 0.0121 ± 0.00128 µM.
Take biotin-α-MG: on reticulon-4 (RTN4/Nogo) [2], binding was characterised by a dissociation constant (Kd) of 0.039 ± 0.00109 µM.
